The values below are quoted from earlier work in patent publication US20050271657A1, “Intermittent treatment regime for organ failure” (Australian Stem Cell Centre Ltd., priority 2004, published 2005).

The conditions of data set [1]: renal transplant patients.
Data set [2] has as its system A II production from angiotensin I (A I).

On to `CCOC(=O)[C@H](CCc1ccccc1)N[C@@H](C)C(=O)N1CCC[C@H]1C(=O)O` [Enalapril, enalapril], for which the anemia result in data set [1] is “reversible anemia”. In addition, in data set [2], the “blockage of A II production from angiotensin I at specific glomerular sites” value was “blockage”.
